# Reference: article PMC9666555, “Genuine selective caspase-2 inhibition with new irreversible small peptidomimetics” (Cell Death & Disease, 2022)
# Legend:
# Plasmin = molecular target: T1, Plasmin (Homo sapiens, UniProt P00747); test: Non-caspase enzyme assay, Plasmin; type: biochemical; conditions: concentrations up to 10 µM
# T1 construct: The human active Plasmin, Thrombin, and Trypsin; purchased Sigma-Aldrich
# Protocol: (§1) Stock solutions were stored at −80 °C. […]
# (§2) Non-caspase enzyme assays
# (§3) The human pro- kallikrein-1 (pro-hK1) was activated in a buffer containing: Tris-HCl 50 mM, CaCl2 10 mM, NaCl 150 mM, Brij-35 0,05% pH 7,5. Human pro-kallikrein-6 and -8 (pro-hK6 and 8 were activated using Lysyl-endopeptidase (Wako- BioProducts®) at a 1/500 weight ratio, in a buffer containing 50 mM Tris and 0,05% Brij-35 (pH 8). Kinetics using non-caspase enzymes for selectivity studies were done according to the following conditions.
# (§4) Enzymes Substrates Buffers
# (§5) Cathepsine B (0.2 nM) z-RR-AMC 20 µM Acétate de sodium 0,1 M; EDTA 1mM ; […]
# (§6) Cathepsine L (1.2 nM) RLR-AMC 25 µM Acétate de sodium 0,1 M; EDTA 1mM ; […]
# (§7) Cathepsine D (0.1 nM) Mca-Gly-Ly s-Pro-Ile-Leu-Phe-Phe- Citrate de Sodium 0,1 M; EDTA 2 mM ; Arg-Leu-Lys(Dnp)-D-Arg-NH2 10 µM Brij-35 0,01%; pH 4 hK1 (4 nM) Boc-VPR-AMC 100µM Tris 50mM; Citrate 1M; Brij-35 0.05%; pH7 hK6 (2 nM ) Boc-QAR -AMC 100 µM Tris 50mM; Citrate 1M; Brij-35 0.05%; pH7 hK8 (1 nM) Boc-VPR-AMC 100µM Tris 50mM; Citrate 1M; Brij-35 0.05%; pH7
# (§8) Thrombine (10 mU/mL) Boc-VPR-AMC 100µM Tris 50mM; Citrate 1M; Brij-35 0.05%; pH7 Plasmine (4 nM ) Boc-QAR -AMC 100µM Tris 50mM; Citrate 1M; Brij-35 0.05%; pH7 Trypsine (0.1 nM) Boc-QAR -AMC 100µM Tris 50mM; Citrate 1M; Brij-35 0.05%; pH7
# Kallikrein-8 = molecular target: T2, Kallikrein-8 (Homo sapiens, UniProt O60259); test: Non-caspase enzyme assay, Kallikrein-8; type: biochemical; conditions: concentrations up to 10 µM
# T2 construct: purchased R&D Systems 2025-SE-010
# T2 sequence (O60259 33-260): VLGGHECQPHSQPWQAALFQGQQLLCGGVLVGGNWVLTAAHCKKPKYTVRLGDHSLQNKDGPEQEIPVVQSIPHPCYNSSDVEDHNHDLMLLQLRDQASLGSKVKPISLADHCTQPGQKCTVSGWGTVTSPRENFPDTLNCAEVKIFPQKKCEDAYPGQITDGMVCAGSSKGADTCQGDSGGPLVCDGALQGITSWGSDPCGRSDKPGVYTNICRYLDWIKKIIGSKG
# Protocol: as §1, §2, §3, §4, §5, §6, §7, §8
# Thrombin = molecular target: T3, Thrombin (Homo sapiens, UniProt P00734); test: Non-caspase enzyme assay, Thrombin; type: biochemical; conditions: concentrations up to 10 µM
# T3 construct: The human active Plasmin, Thrombin, and Trypsin; purchased Sigma-Aldrich
# Protocol: as §1, §2, §3, §4, §5, §6, §7, §8
# [1] = system: Casp2-mediated Mdm-2 cleavage in H9 hESC-derived NPCs; test: Reversine-induced Mdm-2 cleavage in neural progenitor cells (WB); type: cell-based, human; conditions: 1 µM reversine 24 h
# Protocol: The H9 human embryonic stem cell (hESC) line (WA09, WiCell) was maintained on mouse embryonic fibroblasts (MTI-GlobalStem) feeder culture in HUESM medium (20% KSR in KO-DMEM, 1% MEM-NEAA, 1% Pen–Strep, 0.1 mM 2 mercaptoethanol (Life technologies) 10 ng ml^−1 FGF2 (Biotechne), and differentiated into NPCs as previously described [Supplementary ref. 10] [Supplementary ref. 11]. In brief, hESC colonies were lifted with collagenase IV (1 mg ml^−1 in DMEM) at 37 °C for 1–2 h. Colonies lifted from the plate were transferred to a non-adherent plate (Corning) to generate embryoid bodies (EBs) for 1 day in N2/B27 medium (DMEM/F12-GlutaMAX, 1× N2 supplement, 1× B27 no RA supplement; Life). EBs were cultured in suspension in N2/B27 medium with dual-SMAD inhibitors (0.1 µM LDN193189 and 10 µM SB431542) for 7 days. […]
# H9-hNPCs were pretreated (or not) for 1 h with LJ3a and treated with 1 µM reversine (#10004412, Cayman Chemicals, Ann Arbor, MI) for 24 h. […] After the BCA assay for protein quantification, samples were subject to polyacrylamide gel electrophoresis-sodium dodecyl sulfate analysis (60 min, 200 V, 12% bis–tris 12-well gels), followed by transfer to nitrocellulose membrane (60 min, 30 V). […] Protein bands were quantified using Image Studio Lite Quantification software (LI-COR®, Lincoln, NE). […]
# recorded on the LJ3a sample. […]
# T1 sequence (P00747 581-810 limits assumed): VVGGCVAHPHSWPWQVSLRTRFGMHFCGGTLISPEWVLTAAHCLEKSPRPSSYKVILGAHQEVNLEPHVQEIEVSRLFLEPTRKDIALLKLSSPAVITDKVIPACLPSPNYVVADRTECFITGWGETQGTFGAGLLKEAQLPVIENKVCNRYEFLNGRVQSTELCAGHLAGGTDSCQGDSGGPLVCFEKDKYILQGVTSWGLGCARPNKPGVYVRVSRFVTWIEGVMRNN
# T1 sequence (P00747 97-580 partner limits assumed): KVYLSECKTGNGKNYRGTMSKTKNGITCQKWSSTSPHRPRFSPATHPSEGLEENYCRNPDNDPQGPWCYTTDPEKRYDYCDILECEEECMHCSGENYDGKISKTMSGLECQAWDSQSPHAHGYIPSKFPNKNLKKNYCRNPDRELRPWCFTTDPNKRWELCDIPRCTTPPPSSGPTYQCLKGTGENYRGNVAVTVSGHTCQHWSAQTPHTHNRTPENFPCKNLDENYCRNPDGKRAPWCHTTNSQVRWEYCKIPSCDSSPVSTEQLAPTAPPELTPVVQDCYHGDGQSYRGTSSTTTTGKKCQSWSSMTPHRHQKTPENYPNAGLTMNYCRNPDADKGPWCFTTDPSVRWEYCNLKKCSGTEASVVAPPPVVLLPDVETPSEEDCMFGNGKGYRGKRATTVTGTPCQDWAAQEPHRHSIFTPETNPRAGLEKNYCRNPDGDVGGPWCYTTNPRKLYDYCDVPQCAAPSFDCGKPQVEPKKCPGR
smiles,measurement,setting,value
CC(C)[C@H](NC(=O)c1ccc2ccccc2n1)C(=O)N[C@@H](CC(=O)O)C(=O)N[C@H](C(=O)N1CC[C@H](CC(C)(C)C)[C@@H]1C(=O)NC(CC(=O)O)C(=O)COc1c(F)cccc1F)C(C)C (some centres unmarked) [LJ3a],effect on Plasmin,Plasmin,very limited or no effect
same,effect on Kallikrein-8,Kallikrein-8,very limited or no effect
same,effect on Thrombin,Thrombin,very limited or no effect
same,effect on reversine-induced Mdm-2 cleavage,[1]; 10 µM,completely abolished
same,effect on reversine-induced Mdm-2 cleavage,[1]; submicromolar concentrations,significantly prevented
